Assays:
[1] = target: T1, Serotonin 2 (5-HT2) receptor (Rattus norvegicus) (UniProt P30994+P08909+P14842); experiment: Compound was tested for the inhibition of quipazine binding at 5-HT2 receptor; type: protein assay
[2] = target: D(2) dopamine receptor (Mus musculus) (UniProt P61168); experiment: (§1) Compound was tested in vivo for methyl phenidate-induced gnawing behavior antagonistic activity against dopamine D-2 receptor in mice; type: functional, organism-based
D(2) dopamine receptor = D(2) dopamine receptor (Rattus norvegicus, UniProt P61169); experiment: Tested for the inhibition of [3H]spiperone binding to dopamine D2 receptor
Sequence of D(2) dopamine receptor (P61169 whole entry): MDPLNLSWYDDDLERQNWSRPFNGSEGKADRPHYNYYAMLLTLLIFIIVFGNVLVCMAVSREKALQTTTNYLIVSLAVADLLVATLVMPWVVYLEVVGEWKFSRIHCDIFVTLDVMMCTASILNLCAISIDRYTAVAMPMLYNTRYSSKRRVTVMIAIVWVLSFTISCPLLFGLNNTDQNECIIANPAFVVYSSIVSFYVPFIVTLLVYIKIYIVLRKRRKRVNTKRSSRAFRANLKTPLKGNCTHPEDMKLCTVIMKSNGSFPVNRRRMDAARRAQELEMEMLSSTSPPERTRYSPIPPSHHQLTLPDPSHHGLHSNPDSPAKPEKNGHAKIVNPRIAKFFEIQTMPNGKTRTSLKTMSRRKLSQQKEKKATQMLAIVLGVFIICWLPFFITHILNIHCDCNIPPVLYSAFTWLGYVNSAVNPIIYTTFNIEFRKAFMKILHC

[3] = target: T2, Serotonin 2 (5-HT2) receptor (Rattus norvegicus, UniProt P30994+P08909+P14842); experiment: Inhibition of [3H]ketanserin binding to […] 5-hydroxytryptamine 2 receptor; type: protein assay
[4] = target: D(2) dopamine receptor (Rattus norvegicus) (UniProt P61169); experiment: Tested in vivo for induction of catalepsy against D2 receptor in rats; type: functional, organism-based
Sequence of D(2) dopamine receptor (Rattus norvegicus) (P61169 whole entry): as above

[5] = target: D(2) dopamine receptor (Mus musculus) (UniProt P61168); experiment: Tested in vivo for methyl phenidate-induced gnawing behavior antagonistic activity against dopamine D2 receptor in mice; type: functional, organism-based
Rattus norvegicus [6] = organism: Rattus norvegicus; experiment: Inhibition of quipazine induced head twitches in rats; type: functional
[7] = target: T2, Serotonin 2 (5-HT2) receptor; experiment: Inhibition of [3H]ketanserin binding to rat 5-hydroxytryptamine 2 receptors.; type: protein assay
[8] = target: D(2) dopamine receptor (Rattus norvegicus) (UniProt P61169); experiment: as §1; type: functional, organism-based
Rattus norvegicus [9] = experiment: Compound was tested for the inhibition of quipazine-induced head twitches 24 hours after subcutaneous administration; type: functional; conditions: sc
[10] = target: D(2) dopamine receptor (Rattus norvegicus) (UniProt P61169); experiment: Compound was tested in vivo for induction of catalepsy against D-2 receptor in rats; type: organism-based
[11] = target: T1, Serotonin 2 (5-HT2) receptor (Rattus norvegicus); experiment: Compound was tested for the inhibition of quipazine binding at 5-hydroxytryptamine 2 receptor; type: protein assay

Sequence of D(2) dopamine receptor (Mus musculus) (P61168 whole entry): as the sequence (P61169 whole entry) above, with A29P counted along it
T1 sequence (P08909 whole entry, looked up): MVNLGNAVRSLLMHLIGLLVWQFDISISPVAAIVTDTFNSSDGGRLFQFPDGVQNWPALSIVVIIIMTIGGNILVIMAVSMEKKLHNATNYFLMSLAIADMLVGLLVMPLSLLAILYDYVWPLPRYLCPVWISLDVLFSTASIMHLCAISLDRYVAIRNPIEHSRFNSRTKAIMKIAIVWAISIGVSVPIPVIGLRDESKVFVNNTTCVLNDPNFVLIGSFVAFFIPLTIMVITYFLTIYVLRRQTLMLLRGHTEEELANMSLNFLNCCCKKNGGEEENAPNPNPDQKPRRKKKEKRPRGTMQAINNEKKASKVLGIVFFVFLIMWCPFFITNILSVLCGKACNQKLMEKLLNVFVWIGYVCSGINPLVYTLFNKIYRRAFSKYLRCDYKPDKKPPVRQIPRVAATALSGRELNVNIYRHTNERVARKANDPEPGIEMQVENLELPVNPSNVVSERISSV
T1 sequence (P14842 whole entry, looked up): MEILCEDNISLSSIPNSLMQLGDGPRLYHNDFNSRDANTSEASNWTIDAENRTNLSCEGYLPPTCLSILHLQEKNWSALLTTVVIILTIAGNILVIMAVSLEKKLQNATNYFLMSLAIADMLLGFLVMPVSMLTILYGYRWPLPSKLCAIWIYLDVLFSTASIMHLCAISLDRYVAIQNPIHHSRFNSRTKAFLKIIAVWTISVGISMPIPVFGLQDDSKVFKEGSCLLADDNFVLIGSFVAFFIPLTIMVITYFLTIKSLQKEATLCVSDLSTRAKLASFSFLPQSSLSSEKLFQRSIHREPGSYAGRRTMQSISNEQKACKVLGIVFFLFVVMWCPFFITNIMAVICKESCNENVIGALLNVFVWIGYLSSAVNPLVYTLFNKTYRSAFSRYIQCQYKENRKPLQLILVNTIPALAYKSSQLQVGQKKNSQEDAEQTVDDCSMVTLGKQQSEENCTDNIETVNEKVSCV
T1 sequence (P30994 whole entry, looked up): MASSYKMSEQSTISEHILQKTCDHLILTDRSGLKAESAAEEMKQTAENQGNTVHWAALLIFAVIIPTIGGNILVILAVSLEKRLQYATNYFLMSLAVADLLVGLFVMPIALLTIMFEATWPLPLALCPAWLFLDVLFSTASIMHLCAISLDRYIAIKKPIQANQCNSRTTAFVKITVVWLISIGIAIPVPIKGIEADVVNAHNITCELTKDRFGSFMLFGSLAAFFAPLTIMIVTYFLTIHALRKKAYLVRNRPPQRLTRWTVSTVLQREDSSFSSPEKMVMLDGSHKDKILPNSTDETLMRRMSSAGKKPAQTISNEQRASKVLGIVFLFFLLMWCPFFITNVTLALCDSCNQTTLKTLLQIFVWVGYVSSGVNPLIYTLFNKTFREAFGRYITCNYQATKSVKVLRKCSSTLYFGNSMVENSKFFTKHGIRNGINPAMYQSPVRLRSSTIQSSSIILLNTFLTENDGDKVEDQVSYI

Compound	IC50 (D(2) dopamine receptor)	ED50 [4]	ED50 [5]	ED50 (Rattus norvegicus [6])	IC50 [7]	other results
O=C1N(CCN2CCC(c3cn(-c4ccc(F)cc4)c4ccc(Cl)cc34)CC2)CCN1C1CCCC1	–	–	–	–	–	ED50 [1]: > 2.1 µmol/kg; ED50 [2]: > 67 µmol/kg
O=C1NCCN1CCCCCCN1CCC(c2cn(-c3ccc(F)cc3)c3ccc(Cl)cc23)CC1	2.2 nM	20 µmol/kg	2.7 µmol/kg	> 2.2 µmol/kg	–	IC50 [3]: 2.5 nM
OCCN1CCN(c2cn(-c3ccc(F)cc3)c3ccc(C(F)(F)F)cc23)CC1	–	0.06 µmol/kg	0.079 µmol/kg	0.023 µmol/kg	–	IC50 [3]: 1.4 nM
O=C1NCCN1CCCCCN1CCC(c2cn(-c3ccc(F)cc3)c3ccc(Cl)cc23)CC1	4.2 nM	–	14 µmol/kg	1.5 µmol/kg	1.5 nM	–
OCCN1CCC(c2cn(-c3ccc(F)cc3)c3ccc(Cl)cc23)CC1	4.5 nM	3.8 µmol/kg	1.5 µmol/kg	0.034 µmol/kg	2.7 nM	–
Fc1ccc(-n2cc(C3=CCNCC3)c3cc(Cl)ccc32)cc1	–	> 61 µmol/kg	–	1.5 µmol/kg	–	ED50 [8]: 17 µmol/kg
O=C1NCCN1CCN1CC=C(c2cn(-c3ccc(F)cc3)c3ccc(Cl)cc23)CC1	2.3 nM	2.2 µmol/kg	2 µmol/kg	0.22 µmol/kg	–	ED50 (Rattus norvegicus [9]): 1.2 µmol/kg
O=C1NCCN1CCN1CCC(c2cn(-c3ccc(F)cc3)c3ccc(C(F)(F)F)cc23)CC1	1.9 nM	45 µmol/kg	22 µmol/kg	0.11 µmol/kg	1 nM	–
CN1CC=C(c2cn(-c3ccc(F)cc3)c3ccccc23)CC1	1.6 nM	3.6 µmol/kg	1.3 µmol/kg	0.15 µmol/kg	–	–
OCCN1CCN([C@@H]2C[C@@H](c3ccc(F)cc3)c3ccc(C(F)(F)F)cc32)CC1 (racemic) [TEFLUDAZINE]	–	0.12 µmol/kg	0.2 µmol/kg	0.029 µmol/kg	2.8 nM	–
CN1CCN(c2cn(-c3ccc(F)cc3)c3ccc(Cl)cc23)CC1	1 nM	0.23 µmol/kg	0.12 µmol/kg	0.041 µmol/kg	–	IC50 [3]: 0.3 nM
O=C1NCCN1CCCCN1CCC(c2cn(-c3ccc(F)cc3)c3ccc(Cl)cc23)CC1	78 nM	–	> 72 µmol/kg	> 2.2 µmol/kg	59 nM	–
O=C1NCCN1CCN1CCN(c2cn(-c3ccc(F)cc3)c3ccc(Cl)cc23)CC1	21 nM	4.5 µmol/kg	7.8 µmol/kg	0.015 µmol/kg	–	IC50 [3]: 4.4 nM
O=C1NCCN1CCN1CCC(c2cn(-c3ccc(F)cc3)c3ccc(F)cc23)CC1	4.7 nM	> 78 µmol/kg	> 78 µmol/kg	0.052 µmol/kg	0.48 nM	ED50 (Rattus norvegicus [9]): 0.0097 µmol/kg
O=C1NCCN1CCN1CCC(c2cn(-c3ccc(F)cc3)c3ccc(Br)cc23)CC1	3.8 nM	> 41 µmol/kg	> 82 µmol/kg	0.032 µmol/kg	1.3 nM	–
COc1ccc2c(c1)c(C1CCN(CCN3CCNC3=O)CC1)cn2-c1ccc(F)cc1	24 nM	> 46 µmol/kg	> 76 µmol/kg	0.77 µmol/kg	1 nM	–
O=C1NCCN1CCN1CCC(c2cn(-c3ccc(F)cc3)c3ccccc23)CC1	18 nM	> 98 µmol/kg	> 98 µmol/kg	0.036 µmol/kg	0.082 nM	ED50 (Rattus norvegicus [9]): 0.082 µmol/kg
Fc1ccc(-n2cc(C3CCNCC3)c3cc(Cl)ccc32)cc1	23 nM	–	–	1.5 µmol/kg	3.8 nM	ED50 [2]: > 90 µmol/kg

Compound	IC50 (D(2) dopamine receptor)	ED50 [4]	ED50 [5]	ED50 (Rattus norvegicus [6])	IC50 [7]	other results
O=C1N(CCN2CCC(c3cn(-c4ccc(F)cc4)c4ccc(Cl)cc34)CC2)CCN1c1ccccc1	92 nM	–	–	> 0.15 µmol/kg	4.4 nM	ED50 [2]: > 77 µmol/kg
CN1CC=C(c2cn(-c3ccc(F)cc3)c3ccc(Cl)cc23)CC1	1.1 nM	0.085 µmol/kg	0.085 µmol/kg	0.058 µmol/kg	–	IC50 [3]: 0.53 nM; ED50 (Rattus norvegicus [9]): > 0.19 µmol/kg
O=C1NCCN1CCN1CCC(c2cn(-c3ccc(F)cc3)c3ccc(Cl)cc23)CC1 [SERTINDOLE]	–	> 91 µmol/kg	> 180 µmol/kg	0.052 µmol/kg	–	ED50 (Rattus norvegicus [9]): 0.03 µmol/kg
CC(C)N1CCN(CCN2CCC(c3cn(-c4ccc(F)cc4)c4ccc(Cl)cc34)CC2)C1=O	12 nM	> 69 µmol/kg	> 69 µmol/kg	0.046 µmol/kg	2.1 nM	–
O=C1NCCN1CCN1CCC(c2cn(-c3ccc(F)cc3)c3ccc(Cl)cc23)(c2cn(-c3ccc(F)cc3)c3ccc(Cl)cc23)CC1	–	–	–	–	–	IC50 [3]: 120 nM
Fc1ccc(-n2cc(C3=CCNCC3)c3cc(C(F)(F)F)ccc32)cc1	–	> 14 µmol/kg	2.1 µmol/kg	> 0.86 µmol/kg	–	–
CN1CCN(CCN2CCC(c3cn(-c4ccc(F)cc4)c4ccc(Cl)cc34)CC2)C1=O	6.5 nM	31 µmol/kg	2.6 µmol/kg	0.021 µmol/kg	0.24 nM	–
O=C1NCCN1CCN1CCC(c2c[nH]c3ccc(Cl)cc23)CC1	810 nM	–	–	> 14 µmol/kg	25 nM	ED50 [10]: 47 µmol/kg
N#Cc1ccc2c(c1)c(C1=CCN(CCN3CCNC3=O)CC1)cn2-c1ccc(F)cc1	2.1 nM	–	–	–	3.2 nM	ED50 [10]: 0.37 µmol/kg
CN1CCN(C2=Nc3cc(Cl)ccc3Nc3ccccc32)CC1 [CLOZAPINE]	–	–	–	–	–	ED50 (Rattus norvegicus [9]): > 31 µmol/kg
Cc1ccc2c(c1)c(C1CCN(CCN3CCNC3=O)CC1)cn2-c1ccc(F)cc1	3.7 nM	> 91 µmol/kg	98 µmol/kg	0.0083 µmol/kg	0.3 nM	–
N#Cc1ccc2c(c1)c(C1CCN(CCN3CCNC3=O)CC1)cn2-c1ccc(F)cc1	2.2 nM	–	34 µmol/kg	–	1.3 nM	–
CS(=O)(=O)c1ccc2c(c1)c(C1CCN(CCN3CCNC3=O)CC1)cn2-c1ccc(F)cc1	5.8 nM	> 17 µmol/kg	> 67 µmol/kg	54 µmol/kg	8 nM	–
Cc1nc2n(c(=O)c1CCN1CCC(c3noc4cc(F)ccc34)CC1)CCCC2 [RISPERIDONE]	–	–	–	–	–	ED50 (Rattus norvegicus [9]): > 3 µmol/kg
O=C1NCCN1CCCN1CCC(c2cn(-c3ccc(F)cc3)c3ccc(Cl)cc23)CC1	3.4 nM	11 µmol/kg	57 µmol/kg	1.8 µmol/kg	1 nM	–
O=C1NCCN1CCN1CC=C(c2cn(-c3ccc(F)cc3)c3ccc(C(F)(F)F)cc23)CC1	–	0.49 µmol/kg	0.37 µmol/kg	> 0.66 µmol/kg	–	ED50 [11]: 0.14 µmol/kg
CN1CC=C(c2cn(-c3ccc(F)cc3)c3ccc(F)cc23)CC1	–	0.64 µmol/kg	0.44 µmol/kg	0.15 µmol/kg	–	IC50 [3]: 3 nM
CN1CC=C(c2cn(-c3ccc(F)cc3)c3ccc([N+](=O)[O-])cc23)CC1	0.76 nM	0.025 µmol/kg	0.022 µmol/kg	0.0091 µmol/kg	–	IC50 [3]: 1.9 nM
